US20230072421A1, “TARGETED RADIOPHARMACEUTICALS FOR THE DIAGNOSIS AND TREATMENT OF PROSTATE CANCER” (Bayer AS, priority 2019, published 2023)

Molecular target: T1, PSMA-expressing LNCaP cells (Homo sapiens, UniProt Q04609)
T1 construct: PSMA-expressing LNCaP cells; endogenous in cells; host or cells: LNCaP
Experiment: Binding competition assay against 3H-PSMA-617 on LNCaP cells
Outline: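 Compounds added to LNCaP cells in growth medium, 2 h at 37 °C, 5% CO2. After two ice-cold PBS washes, cells lysed in 0.3 M NaOH and bound radioactivity measured by liquid scintillation counting.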

[1] = LNCaP cells, 10 nM 3H-PSMA-617, competing non-radiolabeled compound 10 nM, 2 h at 37° C., triplicates
[2] = LNCaP cells, 10 nM 3H-PSMA-617, competing non-radiolabeled compound 100 nM, 2 h at 37° C., triplicates

T1 sequence (Q04609 whole entry): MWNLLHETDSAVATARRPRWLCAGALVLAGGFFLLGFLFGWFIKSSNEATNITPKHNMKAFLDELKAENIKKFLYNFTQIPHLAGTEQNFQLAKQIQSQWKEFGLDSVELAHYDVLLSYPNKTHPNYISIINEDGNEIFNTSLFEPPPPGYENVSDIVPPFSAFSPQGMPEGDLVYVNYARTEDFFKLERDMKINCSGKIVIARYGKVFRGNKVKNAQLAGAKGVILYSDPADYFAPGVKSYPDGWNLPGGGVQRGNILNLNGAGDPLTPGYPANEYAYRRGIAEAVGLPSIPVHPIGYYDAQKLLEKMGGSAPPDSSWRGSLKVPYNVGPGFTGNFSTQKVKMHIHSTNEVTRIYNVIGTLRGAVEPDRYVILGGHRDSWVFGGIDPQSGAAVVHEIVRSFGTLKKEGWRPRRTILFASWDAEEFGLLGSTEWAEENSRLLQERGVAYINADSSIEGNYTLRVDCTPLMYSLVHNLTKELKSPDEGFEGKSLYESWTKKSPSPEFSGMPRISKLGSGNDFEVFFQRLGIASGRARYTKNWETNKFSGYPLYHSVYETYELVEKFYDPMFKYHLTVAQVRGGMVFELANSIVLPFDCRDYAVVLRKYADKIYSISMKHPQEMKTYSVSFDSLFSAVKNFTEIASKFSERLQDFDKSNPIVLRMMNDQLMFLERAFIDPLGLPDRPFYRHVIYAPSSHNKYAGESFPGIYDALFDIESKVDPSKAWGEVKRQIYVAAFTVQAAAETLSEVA

O=C(O)CC[C@H](NC(=O)N[C@@H](CCCCNC(=O)[C@H](Cc1ccc2ccccc2n1)NC(=O)C1CCC(CNC(=O)C[N+]23CC[N+]45CCN6CC[N+]7(CC2)CC(=O)[OH+][Th]347([O]C(=O)C6)[O]C(=O)C5)CC1)C(=O)O)C(=O)O (stereo partly shown) [Example 17-B-232Th]
% remaining 3H-PSMA-617 @ 10 nM (mean) [1]: 46%
% remaining 3H-PSMA-617 @ 100 nM (mean) [2]: 10%

O=C(O)CC[C@H](NC(=O)N[C@@H](CCCCNC(=O)[C@H](Cc1ccc2ccccc2c1)NC(=O)[C@H]1CC[C@H](CNC(=S)Nc2ccc(CC(CN(CCNC(=O)c3ccn(CCO)c(=O)c3O)CCNC(=O)c3ccn(CCO)c(=O)c3O)CN(CCNC(=O)c3ccn(CCO)c(=O)c3O)CCNC(=O)c3ccn(CCO)c(=O)c3O)cc2)CC1)C(=O)O)C(=O)O [Example 1-F, (3S,10S,14S)-1-{(1r,4S)-4-[({[4-(3-[bis(2-{[3-hydroxy-1-(2-hydroxyethyl)-2-oxo-1,2-dihydropyridine-4-carbonyl]amino}ethyl)amino]-2-{[bis(2-{[3-hydroxy-1-(2-hydroxyethyl)-2-oxo-1,2-dihydropyridine-4-carbonyl]amino}ethyl)amino]methyl}propyl)phenyl]carbamothioyl}amino)methyl]cyclohexyl}-3-[(naphthalen-2-yl)methyl]-1,4,12-trioxo-2,5,11,13-tetraazahexadecane-10,14,16-tricarboxylic acid]
remaining activity at 0.01 µM [1]: 71%
remaining activity at 0.1 µM [2]: 21%

N[C@H]1CC[C@H](CNC(=O)N[C@@H](Cc2ccc3ccccc3c2)C(=O)NCCCC[C@H](NC(=O)N[C@@H](CCC(=O)O)C(=O)O)C(=O)O)CC1 [Example 40-A, (5S,12S,16S)-1-[(1r,4S)-4-aminocyclohexyl]-5-[(naphthalen-2-yl)methyl]-3,6,14-trioxo-2,4,7,13,15-pentaazaoctadecane-12,16,18-tricarboxylic acid]
remaining activity at 0.01 µM [1]: 87%
remaining activity at 0.1 µM [2]: 62%

NC[C@H]1CC[C@H](CNC(=O)N[C@@H](Cc2ccc3ccccc3c2)C(=O)NCCCC[C@H](NC(=O)N[C@@H](CCC(=O)O)C(=O)O)C(=O)O)CC1 [Example 29-A, (5S,12S,16S)-1-[(1r,4S)-4-(aminomethyl)cyclohexyl]-5-[(naphthalen-2-yl)methyl]-3,6,14-trioxo-2,4,7,13,15-pentaazaoctadecane-12,16,18-tricarboxylic acid]
remaining activity at 0.01 µM [1]: 113%
remaining activity at 0.1 µM [2]: 92%

O=C(O)CC[C@H](NC(=O)N[C@@H](CCCCNC(=O)[C@H](Cc1ccc2ccccc2c1)NC(=O)c1ccc(CNC(=O)CN2CCN(CC(=O)O)CCN(CC(=O)O)CCN(CC(=O)O)CC2)nc1)C(=O)O)C(=O)O [Example 26-B, (3S,10S,14S)-3-[(naphthalen-2-yl)methyl]-1,4,12-trioxo-1-[6-({2-[4,7,10-tris(carboxymethyl)-1,4,7,10-tetraazacyclododecan-1-yl]acetamido}methyl)pyridin-3-yl]-2,5,11,13-tetraazahexadecane-10,14,16-tricarboxylic acid]
remaining activity at 0.01 µM [1]: 53%
remaining activity at 0.1 µM [2]: 6%
competition against 3H-PSMA-617 on PSMA-expressing LNCaP cells (in words) (comparison between examples): improved competition in comparison to the cyclohexyl examples 1-A and 1-B

O=C(O)CC[C@H](NC(=O)N[C@@H](CCCCNC(=O)[C@H](Cc1ccc2ccccc2c1)NC(=O)Cn1ccc(-c2ccc(NC(=O)CN3CCN(CC(=O)O)CCN(CC(=O)O)CCN(CC(=O)O)CC3)cc2)n1)C(=O)O)C(=O)O [Example 28-B, (4S,11S,15S)-4-[(naphthalen-2-yl)methyl]-2,5,13-trioxo-1-[3-(4-{2-[4,7,10-tris(carboxymethyl)-1,4,7,10-tetraazacyclododecan-1-yl]acetamido}phenyl)-1H-pyrazol-1-yl]-3,6,12,14-tetraazaheptadecane-11,15,17-tricarboxylic acid]
remaining activity at 0.01 µM [1]: 33%
remaining activity at 0.1 µM [2]: 90%
